Values of other authors, collected in patent US9884040B2, “Desethylamiodarone for use in cancer treatment” (PÉCSI TUDOMÁNYEGYETEM, priority 2015, dated 2018).

Details: in vivo; cited from earlier work

Q: With `CCCCc1oc2ccccc2c1C(=O)c1cc(I)c(OCCN(CC)CC)c(I)c1` [amiodarone] as the compound, how does the Recommended therapeutic range read?
A: < 5.7 µM
